Results as given in publication PMC8507260, “A2E-induced inflammation and angiogenesis in RPE cells in vitro are modulated by PPAR-α, -β/δ, -γ, and RXR antagonists and by norbixin” (Aging (Albany NY), 2021).

How the values were obtained:
[1] = tested on: PPAR-α; test: Transactivation of over-expressed PPAR-α, luciferase reporter in porcine RPE cells; assay type: cell-based, pig; conditions: for transactivation of over-expressed PPAR-α by the compound alone: vs DMSO control, A2E 20 μM, NBX increasing concentrations
Protocol: First, we evaluated the binding profile of A2E to all three isoforms of PPAR. […] Then the effects of A2E on the endogenous PPAR transactivation in porcine RPE cells were investigated by means of a luciferase assay. […] The level of transactivation of PPAR-α, -β/δ, or -γ isoforms by A2E was determined by co-transfection of porcine RPE cells with a plasmid expressing each of the full-length PPAR isoforms and a plasmid expressing luciferase under the control of the PPAR response element. […]. All usual chemicals, primers, and HX531 were from Sigma (St. Louis, MO, USA). Reagents for cell culture, transfection and quantitative RT-PCR were from Thermo Fisher Scientific (Waltham, MA, USA). RNA extraction NucleoSpin® RNA kit was from Macherey Nagel (Düren, Germany). ECL prime and PVDF membrane were from Amersham GE Healthcare (Buckinghamshire, UK). Primary antibodies against the following proteins were used: GAPDH (Santa Cruz Biotechnology, Inc, Dallas, TX, USA); pAKT, AKT, pERK and ERK (Cell Signaling, Danvers, MA, USA). Secondary antibodies were from Jackson ImmunoResearch (Cambridgeshire, UK). […] Cignal Pathway Reporter Assay Kits were from QIAGEN (Frederick, MD, USA). The Dual-Luciferase Reporter Assay System was purchased from Promega (Madison, WI, USA). pcDNA 3.1 (+)-PPARα and pcDNA 3.1 (+)-PPARβ/δ (pig sequence) were purchased from Genscript (Piscataway, NJ, USA). pCMV6-XL4-PPARγ (human sequence) was purchased from Origene (Rockville, MD, USA).
After one week in culture, cells were trypsinized and transferred to a 96-well plate at a density of 6 × 10^4 cells/cm^2 in DMEM2%FCS. The next day, cells were transfected using the Cignal Reporter Assay Kits for PPAR, RXR, AP-1 and NF-κB, according to the manufacturer’s specifications. To measure the specific activation of PPAR isoforms, cells were also co-transfected with PPAR-α, PPAR-β/δ or PPAR-γ expression vectors. Transfection was performed with Lipofectamine and Plus Reagent in serum-free medium. 3 h after the transfection, the medium was replaced and treatments with the molecules to assay were performed. Luciferase activity was measured the next day using the Dual-Luciferase Reporter Assay System. The measurements were performed with a luminometer (Infinite M1000 from Tecan, Mannedorf, Switzerland). Firefly: Renilla activity ratios were calculated for each condition and ratios from transcription factor-responsive reporter transfections were divided by ratios from negative control transfections to obtain relative luciferase unit, as described by the manufacturer. At least 3 independent transfections were performed in triplicate for each condition.

[2] = tested on: AKT; test: AKT phosphorylation by western blot in primary porcine RPE cells; assay type: cell-based
Protocol: Pig eyes were obtained from a local slaughterhouse and transported to the laboratory in ice-cold Ringer solution. After removal of the anterior segment of the eye, the vitreous and neural retina was separated from the RPE and removed. The eyecup was washed twice with phosphate buffer saline (PBS), filled with trypsin (0.25% in PBS) and incubated at 37°C for 1.5 h. RPE cells were harvested by gently pipetting, centrifuged to remove trypsin and re-suspended in Dulbecco’s Modified Eagle Medium (DMEM) supplemented with 20% (v/v) foetal-calf serum (DMEM20%FCS) and 0.1% gentamycin. Cells were seeded into 60 mm diameter Petri dishes, cultured in an atmosphere of 5% CO2/95% air at 37°C, and supplied with fresh medium after 24 hours and 4 days in vitro. For experiments aimed at measuring mRNA or protein expression in RPE, cells were trypsinized after one week in culture and transferred to 24-well or 6-well plates at a density of 1.5 × 10^5 cells/cm^2 in DMEM2%FCS. […]
RPE samples were lysed in 20 mM Tris-HCl, 150 mM NaCl, 1 mM EDTA, 1% NP-40, pH 7.5 buffer containing a cocktail of protease and phosphatase inhibitors. […] The signal was developed using enhanced chemiluminescence reagents (ECL) prime detection kit, quantified by densitometry using Bio1D (Vilber Lourmat, Germany) and normalized by GAPDH levels. […]

[3] = target: T1, PPAR-γ (Homo sapiens, UniProt P37231); test: Competition binding to PPAR-γ against [3H]rosiglitazone (Eurofins Cerep); set-up: Eurofins Cerep (contract laboratory that ran the assay); conditions: competition with [3H]rosiglitazone
T1 sequence (P37231 1-505): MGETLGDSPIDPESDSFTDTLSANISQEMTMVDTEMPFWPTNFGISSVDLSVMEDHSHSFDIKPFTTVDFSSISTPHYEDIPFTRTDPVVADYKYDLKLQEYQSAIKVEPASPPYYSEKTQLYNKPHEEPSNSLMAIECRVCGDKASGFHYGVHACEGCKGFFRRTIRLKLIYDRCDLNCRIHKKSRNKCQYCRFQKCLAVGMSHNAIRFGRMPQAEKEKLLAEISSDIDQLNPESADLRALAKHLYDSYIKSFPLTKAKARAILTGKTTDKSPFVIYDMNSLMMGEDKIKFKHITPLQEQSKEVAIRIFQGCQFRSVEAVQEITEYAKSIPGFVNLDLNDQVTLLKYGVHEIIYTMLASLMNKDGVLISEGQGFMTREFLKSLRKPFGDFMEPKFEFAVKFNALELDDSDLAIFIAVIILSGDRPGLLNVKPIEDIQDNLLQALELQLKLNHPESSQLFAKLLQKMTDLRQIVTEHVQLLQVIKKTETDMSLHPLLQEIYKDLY
Description: The binding and activity of norbixin on PPARs remains controversial, thus, firstly, we performed competition experiments in vitro between norbixin and [^3H] GW7647, an agonist of PPAR-α, and [^3H] rosiglitazone, an agonist of PPAR-γ. […] Secondly, we tested whether norbixin could induce the transactivation of PPAR-α, -β/δ or -γ in the context of RPE cells in vitro by co-transfecting porcine RPE cells with a plasmid expressing each of the full-length PPAR isoforms and a plasmid expressing luciferase under the control of the PPAR response element. […] Then, we wanted to determine if norbixin could modulate the transactivation of PPAR isoforms induced by specific agonists.
Binding studies of A2E and norbixin to RXR-α and PPAR-α and γ were performed in vitro by an external laboratory (Eurofins Cerep, Celle L’Evescault, France) through competition experiments between A2E or norbixin and [^3H]9-cis-retinoic acid as the natural ligand of RXR-α, [^3H]GW7647 an agonist of PPAR-α and [^3H]Rosiglitazone an agonist of PPAR-γ.

SMILES | effect on over-expressed PPAR-α transactivation induced by A2E ([1]; A2E 20 μM + NBX 20 μM) | inhibition of PPAR-α transactivation induced by GW9578 ([1]; GW9578 at 10 nM, NBX 20 μM) | transactivation of over-expressed PPAR-α by the compound alone [1] | effect on the increase of AKT phosphorylation induced by A2E ([2]; NBX 20 μM + A2E 30 μM) | IC50 [3] [µM] | Kd [3] [µM] | effect of the compound alone on AKT phosphorylation ([2]; A2E 30 μM vs DMSO control)
CC(/C=C/C=C(C)/C=C/C(=O)O)=C\C=C\C=C(C)\C=C\C=C(C)\C=C\C(=O)O (stereo in doubt) [norbixin, 9’-cis-norbixin] | fully abolished | did not inhibit significantly | did not demonstrate any transactivation activity | abrogated completely | 1.9 | 1 | 
CC(C=CC1=C(C)CCCC1(C)C)=CC=CC(C)=Cc1cc(C=CC=C(C)C=CC2=C(C)CCCC2(C)C)cc[n+]1CCO [A2E, N-retinylidene-N-retinylethanolamine] |  |  | induced the transactivation |  | 25.5 | 14 | induced the phosphorylation
